Measurements as given in PMC7615751, “Anionic liposome formulation for oral delivery of thuricin CD, a potential antimicrobial peptide therapeutic” (International journal of pharmaceutics, 2024).

Experiments:
[1] = FaSSIF vs PBS; ref Ryan et al., 2021; cited from earlier work
Description: The pH in FaSSIF is 6.5, and the pI of Trn α and Trn β is close to 4, so the thuricin CD peptides should both be slightly negatively charged in this solution (ExPASy, 2022), helping their dissolution in this medium. Also, it has been previously reported that lacticin 3147, a two peptide bacteriocin with similar ...

trypsin = target: T1, trypsin (Sus scrofa, UniProt P00761); assay: Enzymatic degradation of dissolved thuricin CD by trypsin (residual antibacterial activity); type: in vitro ADME; settings: 4.4 μg/mL Trn α + 4.4 μg/mL Trn β; 19.3 μg/ml trypsin; 3 h, 37 °C; then growth curve 24 h, OD 590 nm; triplicate
T1 construct: purchased Sigma Aldrich Ireland Ltd
T1 sequence (P00761 9-231): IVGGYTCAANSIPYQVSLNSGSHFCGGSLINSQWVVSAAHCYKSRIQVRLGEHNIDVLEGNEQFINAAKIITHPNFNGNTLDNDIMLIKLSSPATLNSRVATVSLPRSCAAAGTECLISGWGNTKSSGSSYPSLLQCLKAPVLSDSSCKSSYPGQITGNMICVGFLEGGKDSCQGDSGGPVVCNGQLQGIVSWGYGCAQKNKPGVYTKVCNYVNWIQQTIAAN
Procedure: (§1) Trn α and Trn β stock solutions (1 mg/mL in 70 % IPA 0.1 % TFA in water) were filter sterilized and diluted to a final concentration of 100 μg/mL in sterile PBS. Pepsin activity was evaluated beforehand according to the haemoglobin assay, based on the principle that haemoglobin in water produces tyrosine peptides soluble in trichloroacetic acid (TCA) when pepsin is applied ([Brodkorb, 2019]). The activity units (AU or μmol/min), defined as the quantity of the enzyme that converts one micromole of substrate per minute, were determined before this test. Pepsin was suspended in cold 0.01 M HCl pH 2 reaching 824 activity units per mL. Trn α and Trn β were added to the same well of a 96-well plate in triplicate to give a final concentration of 5.6 μg/mL and 5.8 μg/mL respectively. […] The plate was incubated in a BioTek ELx808 Ultra microplate reader at 37 °C for 24 h at a wavelength of 590 nm. Readings were taken every 30 min for 24 h with the plate shaken mildly before each reading.
(§2) A similar procedure was followed for trypsin and chymotrypsin, but different concentrations were used, and incubation time was 3 h. […] Trypsin activity units were determined by a previously established assay based on the principle that p-toluene-sulfonyl-l-arginine methyl ester (TAME) in water produces p-toluene-sulfonyl-L-arginine plus methanol when trypsin is applied ([Brodkorb, 2019]). […]

[2] = cell-free supernatants; ref Rea, 2010; cited from earlier work
Description: However, because of their peptide nature, bacteriocins are susceptible to degradation, aggregation, and precipitation in the body, and can show low solubility and poor permeability ([Flynn et al., 2021]). Previous reports have evaluated the heat and pH stability of thuricin CD cell-free supernatants. […] Activity was also maintained in a pH range of 2 to 9 ([Rea, 2010]). Neither quantitative nor qualitative data on the solubility of thuricin in biorel ...

pepsin [3] = target: T2, pepsin (Sus scrofa, UniProt P00791); assay: Enzymatic degradation of dissolved thuricin CD by pepsin (residual antibacterial activity); type: in vitro ADME; settings: 5.6 μg/mL Trn α + 5.8 μg/mL Trn β
T2 construct: purchased Sigma Aldrich Ireland Ltd
T2 sequence (P00791 60-385): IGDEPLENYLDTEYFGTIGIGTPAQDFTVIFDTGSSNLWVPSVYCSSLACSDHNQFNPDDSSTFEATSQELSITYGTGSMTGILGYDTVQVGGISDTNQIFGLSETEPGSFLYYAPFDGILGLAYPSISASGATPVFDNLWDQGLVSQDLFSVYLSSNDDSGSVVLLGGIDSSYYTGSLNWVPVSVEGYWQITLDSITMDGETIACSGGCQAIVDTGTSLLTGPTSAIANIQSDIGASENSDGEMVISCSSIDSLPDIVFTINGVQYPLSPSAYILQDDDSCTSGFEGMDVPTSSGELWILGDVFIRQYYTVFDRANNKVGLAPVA
Procedure: Trn α and Trn β stock solutions (1 mg/mL in 70 % IPA 0.1 % TFA in water) were filter sterilized and diluted to a final concentration of 100 μg/mL in sterile PBS. Pepsin activity was evaluated beforehand according to the haemoglobin assay, based on the principle that haemoglobin in water produces tyrosine peptides soluble in trichloroacetic acid (TCA) when pepsin is applied ([Brodkorb, 2019]). The activity units (AU or μmol/min), defined as the quantity of the enzyme that converts one micromole of substrate per minute, were determined before this test. Pepsin was suspended in cold 0.01 M HCl pH 2 reaching 824 activity units per mL. Trn α and Trn β were added to the same well of a 96-well plate in triplicate to give a final concentration of 5.6 μg/mL and 5.8 μg/mL respectively. […] 25 μL of pepsin solution was also added to each of the wells. This gave a final pepsin concentration/activity of 1.2 mg/mL or 98.8 AU/mL, which is the approximate concentration of enzyme present in the human stomach ([Liu, 2015]). Thuricin alone and pepsin alone were included as control samples with the bacterial culture. Blanks were set up in triplicate with PBS, 0.01 M HCl, and media only (BHI). […] The plate was incubated in a BioTek ELx808 Ultra microplate reader at 37 °C for 24 h at a wavelength of 590 nm. Readings were taken every 30 min for 24 h with the plate shaken mildly before each reading.

α-chymotrypsin = target: T3, α-chymotrypsin (Bos taurus, UniProt P00766); assay: Enzymatic degradation of dissolved thuricin CD by α-chymotrypsin (residual antibacterial activity); type: in vitro ADME; settings: 4.4 μg/mL Trn α + 4.4 μg/mL Trn β; 19.3 μg/ml α-chymotrypsin; 3 h, 37 °C; then growth curve 24 h, OD 590 nm; triplicate
T3 construct: purchased Sigma Aldrich Ireland Ltd
Procedure: as §1, §2

[4] = tested on: L. monocytogenes ATCC 1916; assay: Bioactivity of dissolved thuricin CD (MIC50, growth curves at OD 590 nm); type: cell-based; settings: 24 h, 37 °C
Procedure: For this study, L. monocytogenes was used as an indicator strain. The minimum inhibitory concentration MIC50 was determined based on the protocol previously described by Mathur et al. ([Mathur, et al., 2017]). MIC50 was established as the concentration of peptides that inhibited 50 % of growth of L. monocytogenes ATCC 1916 ([Rea, 2010]).
Briefly, 1 mg/mL stock solutions of freeze-dried Trnα and Trnβ resuspended in 70 % IPA 0.1 % TFA in water were diluted in sterile PBS to a final concentration of 100 μg/mL (dissolved thuricin). For all the experiments in this, and the following sections, a 1:1 M ratio of Trn α: Trn β was used. The corresponding volumes of each peptide to reach 250 nM of each peptide (0.69 μg/mL Trn α + 0.72 μg/mL Trn β), 500 nM of each peptide (1.38 μg/mL Trn α + 1.43 μg/mL Trn β), 1 μM of each peptide (2.76 μg/mL Trn α + 2.86 μg/mL Trn β), and 2 μM of each peptide (5.53 μg/mL Trn α + 5.72 μg/mL Trn β) in the final well volume were added in triplicate to a 96 well plate. […] L. monocytogenes ATCC 1916 was grown in BHI broth shaking overnight at 37 °C. 150 μL of 10^5 CFU/mL bacterial culture was added to the wells with sample. Blanks were set up in triplicate with only PBS and media as well as a control containing buffer and bacterial culture. The plate was incubated in a Biotek ELx808 Ultra microplate reader at 37 °C for 24 h. Readings were taken every 30 min at 590 nm. […]

[5] = tested on: L. monocytogenes ATCC 1916; assay: Solution behaviour / activity of free thuricin CD in FaSSGF without enzymes; type: cell-based
Procedure: (§3) Fasted state simulated intestinal fluid (FaSSIF) and fasted state simulated gastric fluid (FaSSGF) were prepared using Biorelevant FaS-SIF/FaSSGF powder following the manufacturer’s instructions. Briefly, for FaSSIF, 0.21 g NaOH, 1.72 g sodium phosphate monobasic and 3.10 g NaCl were diluted in 400 mL distilled water. The solution was stirred until dissolved. The pH was then adjusted to 6.5 with 0.1 M HCl. 1.12 g FaSSIF powder was added and finally, the volume was topped up to 500 mL. For FaSSGF, 2 g NaCl was dissolved in 900 mL distilled water. The pH was adjusted to 1.6 with 1 M HCl.
Trn α and Trn β solutions at concentrations of 0.5 mg/mL in FaSSGF/FaSSIF were suspended directly from lyophilised powder (free thuricin). Further dilutions were carried out to reach concentrations of 2 times, 5 times and 10 times the MIC50 in the final volume to be used for the experiment. The suspensions were distributed in different microtubes and incubated at 37 °C, 300 rpm in an incubator for 0.5 h. An aliquot of each concentration was taken, and filter sterilized with a 0.2 μm PES filter. […] The plate was incubated in a Biotek ELx808 Ultra microplate reader at 37 °C for 24 h at a wavelength of 590 nm. Readings were taken every 30 min for 24 h with the plate shaken mildly before each one. The readings collected from those samples were considered as time 0. […]

Caco-2 cells = assay: Presto blue cytotoxicity assay; type: cell-based; settings: 5 μg/mL Trn α + 5 μg/mL Trn β, 24 h, 37 °C, absorbance 570 nm
Procedure: The biocompatibility of Trn αβ liposome suspension and dissolved thuricin CD with intestinal epithelial cells were tested. Caco-2 cells were grown in high glucose Dulbecco’s modified Eagle’s medium supplemented with 10 % fetal bovine serum, 1 % L-Glutamine, 1 % pen-strep, and 1 % non-essential amino acids at 37 °C, with 5 % CO2 and 95 % relative humidity. Approximately 10,000 cells were seeded per well in a 96-well plate. The plate was incubated overnight to ensure the cells adhered to the wells. The media was removed from the wells and filter-sterilized dissolved thuricin CD and Trn αβ liposome suspension samples at a final concentration of 5 μg/mL of each peptide were added 1:1 (v/v) with fresh media. Control wells were included by adding blank liposomes and just media to the cells. The plate was incubated for 24 h at 37 °C, with 5 % CO2 and 95 % relative humidity. The media was removed from the wells, 10 μL Presto blue +90 μL fresh media was added to each well and left incubating for 60 min. Finally, the absorbances of the solutions in the plate were read at 570 nm and plotted for all samples.

[6] = tested on: L. monocytogenes ATCC 1916; assay: Solution behaviour / activity of free thuricin CD in FaSSIF without enzymes; type: cell-based; settings: free thuricin suspended from solid in FaSSIF pH 6.5, 37 °C, 0.2 μm filtered, growth curve 24 h, triplicate
Procedure: as §3
Trn α and Trn β solutions at concentrations of 0.5 mg/mL in FaSSGF/FaSSIF were suspended directly from lyophilised powder (free thuricin). Further dilutions were carried out to reach concentrations of 2 times, 5 times and 10 times the MIC50 in the final volume to be used for the experiment. The suspensions were distributed in different microtubes and incubated at 37 °C, 300 rpm in an incubator for 0.5 h. An aliquot of each concentration was taken, and filter sterilized with a 0.2 μm PES filter. 50 μL of each sterile solution was transferred to a 96-well microtiter plate in triplicate. Each well was filled with 150 μL of a L. monocytogenes culture at an OD of 0.1. A control was set with 50 μL of FaSSGF/FaSSIF and 150 μL culture. The plate was incubated in a Biotek ELx808 Ultra microplate reader at 37 °C for 24 h at a wavelength of 590 nm. Readings were taken every 30 min for 24 h with the plate shaken mildly before each one. The readings collected from those samples were considered as time 0. In the meantime, the microtubes were put back in the incubator with reduced shaking. After 1, 4 and 24 h a new aliquot was taken, and the same protocol was followed for activity testing.

[7] = tested on: L. monocytogenes ATCC 1916; assay: Biological activity of Trn αβ loaded liposomes vs free thuricin CD in acetate buffer; type: cell-based; settings: 1.25 and 2.50 μg/mL of each peptide, 37 °C, 24 h, OD 590 nm, triplicate
Procedure: The activity of Trn αβ liposomes was evaluated following the methodology previously described for thuricin CD. Briefly, the liposome suspension was filtered with a 0.45 μm PES sterile filter. Different volumes of the sterile liposome suspension were added to reach final concentrations of Trn α and Trn β of 1.25 and 2.50 μg/mL in each well. Samples were tested in triplicate. […] 150 μL of 10^5 CFU/mL L. monocytogenes ATCC 1916 culture was added to the wells with sample. Blanks were set up in triplicate with only media, the corresponding blank liposome suspension volume, and PBS. Controls contained inoculated media and PBS. The plate was incubated in a BioTek ELx808 Ultra microplate reader at 37 °C for 24 h. Readings were taken every 30 min at 590 nm. The same procedure was followed for free thuricin (freeze dried thuricin powder directly suspended in acetate buffer).

pepsin [8] = target: T2, pepsin; assay: Biological activity after incubation in FaSSGF with pepsin; type: in vitro ADME; settings: dissolved Trn α and β, 1.2 mg/mL pepsin in FaSSGF, 30 min, 37 °C; double the MIC50; L. monocytogenes growth curve 24 h
Procedure: The activity of αβ liposome suspension and dissolved αβ peptides after exposing both to FaSSGF with pepsin and FaSSIF without pancreatin was analysed. No pancreatin was added to FaSSIF because it inhibitied L. monocytogenes growth itself. Trn αβ loaded liposome suspension or dissolved thuricin (thuricin powder in 70 % IPA 0.1 % TFA in water and further diluted in acetate buffer) + pepsin in FaSSGF were prepared as described in the previous section. Control samples with acetate buffer + pepsin in FaSSGF were also prepared.
After 30 min incubation, pepsin was deactivated by heating the samples at 70 °C for 10 min. The volume necessary to reach a concentration of double the MIC50 of thuricin peptides was added to a 96-well plate. The wells were topped to 50 μL with PBS. 150 μL of 10^5 CFU/mL bacterial cell culture (L. monocytogenes) was added to each well. Blanks were set with media and control samples. The plate was incubated in a BioTek ELx808 Ultra microplate reader at 37 °C for 24 h at a wavelength of 590 nm. Readings were taken every 30 min for 24 h with the plate shaken mildly before each reading.

lacticin 3147
solubility in FaSSIF [1]: improved solubility in FaSSIF compared to PBS

thuricin CD
activity against L. monocytogenes ATCC 1916 after exposure to trypsin (trypsin): retained its activity
heat stability at 85 °C [2]: stable
heat stability at 90 °C [2]: reducing its activity
heat stability at 100 °C [2]: complete activity loss
activity against L. monocytogenes ATCC 1916 after exposure to pepsin (pepsin [3]; pepsin 1.2 mg/mL (98.8 AU/mL), 0.01 M HCl pH 2/PBS, 1.5 h, 37 °C, 70 rpm, then growth curve 24 h, OD 590 nm, triplicate): deactivated
time for which bacterial growth was inhibited, thuricin alone (no enzyme) (pepsin [3]; positive control without pepsin, incubated 1.5 h at 37 °C before culture, growth curve 24 h): ~17 h
activity against L. monocytogenes ATCC 1916 after exposure to α-chymotrypsin (α-chymotrypsin): growth comparable to the control
effect on bacterial growth ([4]; 0.25 μM of each peptide): could not significantly inhibit bacterial growth
inhibition of bacterial growth ([4]; 0.5 μM of each peptide, 1:1 M ratio): approximately 50%
activity of peptides pre-dissolved in 70 % IPA 0.1 % TFA in water and diluted in FaSSGF ([5]; 2, 5 and 10 times the MIC50, 1:1 molar ratio, FaSSGF pH 1.6 (Figure S3)): retained thuricin CD activity
activity after addition of lyophilised powder to FaSSGF ([5]; free thuricin suspended from solid in FaSSGF pH 1.6, 37 °C, x2, x5, x10 MIC50, 0, 1, 4, 24 h, 0.2 μm filtered, growth curve 24 h, triplicate): no activity was detected
cytotoxicity: absorbance compared to the control group of living cells (Caco-2 cells): none of the samples exhibited any significant difference in absorbance
activity after addition of lyophilised powder to FaSSIF, five times the MIC50 ([6]; all time points 0–24 h): activity is observed
activity after addition of lyophilised powder to FaSSIF, ten times the MIC50 ([6]; all time points 0–24 h): activity is observed
activity after addition of lyophilised powder to FaSSIF, double the MIC50 ([6]; time points 0, 1, 4, 24 h): no activity is observed
activity of lyophilised peptides directly suspended in acetate buffer [7]: do not demonstrate any activity
activity after exposure to pepsin in FaSSGF (pepsin [8]): completely lost activity
